Data from patent US20230190685A1, “FORMULATION” (UNION Therapeutics A/S, priority 2020, published 2023).
“And” between values parts separate entries of the source, which are not always exact repeats. Equal entries are not always repeated.

What was measured:
SARS-CoV-2 = conditions: Vero E6 cells; Wang et al. 2020; read-out: EC50 against SARS-CoV-2; cited from earlier work
[1] = Phase 1 trial of inhaled niclosamide, safety and PK; conditions: human, blood, inhaled, 6 mL of 1% formulation
healthy volunteers [2] = assay: as above; conditions: after repeated inhalation doses; raw data
healthy volunteers [3] = conditions: human, in vivo
asthmatic mice = conditions: dissolved in corn oil, I.P. injection; cited from earlier work
[4] = cited from earlier work
[5] = in vivo
[6] = test system: ATCC 29213 (A), MRSA 434844 (B) and S. aureus Newman (C); assay: Spot test on LB agar, all three strains; assay type: cell-based; conditions: for effect on bacterial load, API in DMSO: repeat spot test, only highest concentration (niclosamide 100 µg/mL, oxyclozanide 40 µg/mL)
Protocol: Following incubation, the formed colonies were counted. […] Duplicates were performed.
As both positive controls were negative further the experiment was repeated using different concentrations in a spot test using the same methodology described above.
In this experiment the negative control was the bacterial suspension only.

TMEM16F = target: T1, TMEM16F (Homo sapiens, UniProt Q4KMQ2); conditions: Cabrita et al. 2019; cited from earlier work
T1 sequence (Q4KMQ2 1-910): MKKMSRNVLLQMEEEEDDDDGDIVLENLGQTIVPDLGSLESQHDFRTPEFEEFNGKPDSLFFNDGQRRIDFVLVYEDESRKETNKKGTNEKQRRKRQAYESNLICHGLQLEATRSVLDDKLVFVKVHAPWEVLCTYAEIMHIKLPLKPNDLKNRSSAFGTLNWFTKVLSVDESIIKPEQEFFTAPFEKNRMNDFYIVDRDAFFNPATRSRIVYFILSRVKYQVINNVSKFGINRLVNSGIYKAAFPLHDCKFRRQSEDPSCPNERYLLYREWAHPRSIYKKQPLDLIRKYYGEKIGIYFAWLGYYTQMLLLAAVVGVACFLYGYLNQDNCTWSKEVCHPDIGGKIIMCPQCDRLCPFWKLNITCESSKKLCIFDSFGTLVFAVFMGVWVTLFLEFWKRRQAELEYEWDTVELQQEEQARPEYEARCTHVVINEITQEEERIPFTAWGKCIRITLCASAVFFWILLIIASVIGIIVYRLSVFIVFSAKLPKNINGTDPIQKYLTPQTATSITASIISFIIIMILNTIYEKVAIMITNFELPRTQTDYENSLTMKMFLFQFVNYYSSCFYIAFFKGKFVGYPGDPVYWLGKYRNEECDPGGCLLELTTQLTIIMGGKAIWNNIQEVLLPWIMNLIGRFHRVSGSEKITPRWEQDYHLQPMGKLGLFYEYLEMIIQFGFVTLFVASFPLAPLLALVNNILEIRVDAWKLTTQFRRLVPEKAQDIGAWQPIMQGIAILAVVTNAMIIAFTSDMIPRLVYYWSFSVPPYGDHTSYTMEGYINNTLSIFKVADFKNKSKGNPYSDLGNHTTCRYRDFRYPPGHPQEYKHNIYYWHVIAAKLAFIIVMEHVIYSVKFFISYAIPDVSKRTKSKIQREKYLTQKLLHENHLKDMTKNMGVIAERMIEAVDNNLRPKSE

TMEM16A = target: T2, TMEM16A (Homo sapiens, UniProt Q5XXA6); conditions: Cabrita et al. 2019; cited from earlier work
T2 sequence (Q5XXA6 1-986): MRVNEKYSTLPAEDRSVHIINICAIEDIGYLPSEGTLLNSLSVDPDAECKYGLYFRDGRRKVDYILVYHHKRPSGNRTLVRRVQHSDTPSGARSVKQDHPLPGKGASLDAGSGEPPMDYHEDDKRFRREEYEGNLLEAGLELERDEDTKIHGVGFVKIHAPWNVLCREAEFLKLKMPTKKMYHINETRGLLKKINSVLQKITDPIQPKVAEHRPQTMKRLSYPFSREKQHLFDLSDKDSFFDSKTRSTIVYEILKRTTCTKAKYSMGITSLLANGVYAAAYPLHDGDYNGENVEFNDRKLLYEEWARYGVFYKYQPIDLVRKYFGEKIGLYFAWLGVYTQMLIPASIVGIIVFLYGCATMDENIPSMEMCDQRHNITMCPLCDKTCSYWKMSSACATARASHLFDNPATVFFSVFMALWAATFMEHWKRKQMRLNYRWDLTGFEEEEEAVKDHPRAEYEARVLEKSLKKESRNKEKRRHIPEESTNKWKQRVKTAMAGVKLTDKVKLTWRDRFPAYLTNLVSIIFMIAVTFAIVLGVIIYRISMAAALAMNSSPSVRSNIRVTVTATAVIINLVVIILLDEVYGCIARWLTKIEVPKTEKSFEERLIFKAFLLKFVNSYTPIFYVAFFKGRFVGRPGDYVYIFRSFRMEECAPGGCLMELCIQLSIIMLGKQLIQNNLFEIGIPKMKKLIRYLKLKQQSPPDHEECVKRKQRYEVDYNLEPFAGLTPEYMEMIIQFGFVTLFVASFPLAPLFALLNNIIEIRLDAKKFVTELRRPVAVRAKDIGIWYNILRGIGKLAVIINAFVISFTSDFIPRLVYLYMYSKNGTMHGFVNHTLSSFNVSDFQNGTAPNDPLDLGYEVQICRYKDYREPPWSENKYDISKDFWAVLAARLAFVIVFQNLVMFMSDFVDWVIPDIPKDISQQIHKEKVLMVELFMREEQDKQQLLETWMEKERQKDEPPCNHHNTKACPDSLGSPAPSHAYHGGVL

SARS-CoV = conditions: cited from earlier work

With `CCN(CC)CCCC(C)Nc1ccnc2cc(Cl)ccc12` (stereo not shown) [chloroquine] as the compound, how does the EC50 (SARS-CoV-2) read?
The EC50 was 1130 nM.

Which results are given for `O=C(Nc1ccc([N+](=O)[O-])cc1Cl)c1cc(Cl)ccc1O` [niclosamide ethanolamine]?
half-life ([1]; repeated): 162 min; half-life ([1]; single dose): 120 min; peak concentration in blood (range) (healthy volunteers [2]): 29 to 506 ng/mL; CC50 (VeroE6 cells): > 10 µM; AUC0-8, mean (healthy volunteers [3]): 509.0 ng·h/mL; maximum plasma concentration (Cmax), mean (healthy volunteers [3]): 238.9 ng/mL; CC50 (Caco-2 cells): > 10 µM

For `O=C(Nc1ccc([N+](=O)[O-])cc1Cl)c1cc(Cl)ccc1O` [niclosamide], which “effect on mucus and bronchoconstriction in asthmatic mice” value (asthmatic mice) is on record?
Its value is “reduced mucus production and secretion, as well as bronchoconstriction”.

And the “administered dose detected in the urine (minimum level of absorption)” value ([4]; after oral administration)?
The value was 2-25%.

What about the “maximal serum concentration of niclosamide” value ([4]; human volunteers, single oral dose of 2,000 mg) of the same compound?
Its value is 0.25-6.0 µg/mL and 0.76 -18.3 µM.

What about the “oral bioavailability (F)” value ([4]; oral) of the same compound?
Its value is 10%.

And the “efficacy margin, mean systemic exposure of human oral dose to IC90 against SARS-CoV-2” value [5]?
The value was 8 fold.

What about the “effect on bacterial load, API in DMSO” value [6] of the same compound?
The value was “substantially decreased the bacterial load”.

What about the “inhibition of Cl- channel TMEM16F” value (TMEM16F) of the same compound?
The value was “potent inhibitor”.

What about the “inhibition of Cl- channel TMEM16A” value (TMEM16A) of the same compound?
Its value is “potent inhibitor”.

What about the “concentration suppressing cytopathic effect (CPE) of SARS-CoV (as low as)” value (SARS-CoV) of the same compound?
The value was 1 µm.

What about the “concentration that totally abolished viral antigen synthesis” value (SARS-CoV) of the same compound?
Its value is 1.56 µm.

And the EC50 (SARS-CoV; read-out: EC50 of SARS-CoV replication)?
Its EC50 is < 100 nM.

For `CC(=O)Oc1ccccc1C(=O)Nc1ncc([N+](=O)[O-])s1` [nitazoxanide], which EC50 (SARS-CoV-2) is on record?
The EC50 was 2120 nM.

For `O=C(Nc1cc(Cl)cc(Cl)c1O)c1c(O)c(Cl)cc(Cl)c1Cl` [oxyclozanide, Oxyclozanide], which “efficiency in reducing bacterial load of S. aureus” value ([6]; comparison of tested formulations) is on record?
Its value is “highest efficiency”.

What about the “effect on bacterial load, API in DMSO” value [6] of the same compound?
The value was “substantially decreased the bacterial load”.
